Here are results for 19 compounds from ChEMBL document CHEMBL1123686, “Esters of N,N-disubstituted 2-hydroxyacetamides as a novel highly biolabile prodrug type for carboxylic acid agents” (J Med Chem, 1987).

Series [1] in a line: (§1) Half life of ester hydrolysis in 50% human plasma ( pH of 7.4) at 37 degree Centigrade. Conditions: 50% human plasma, pH 7.4.
Series [2] is described as follows: physchem.
Series [3] can be described thus: Second order rate constant for hydroxide ion catalyzed by hydrolysis at 37 degree Centigrade.
The species entered for series [4] is Homo sapiens. The description is as §1. Conditions: pH 7.4.
A short description of series [5]: physchem. The source holds these as a separate data set.
Series [6] in a line: Half life of ester hydrolysis in 50% human plasma ( pH of 7.4) at 37 degree Centigrade. In kind it is ADME, organism-based. Conditions: pH 7.4.
The species named for series [7] is Homo sapiens. To be noted: Plasma, pH 7.4.
Description: Ability to undergo in vitro ester hydrolysis in 80% human plasma ( pH of 7.4) at 37 degree Celsius expressed as half life of methyl ester hydrolysis
The species named for series [8] is Homo sapiens. Conditions: Plasma, pH 7.4. The source holds these as a separate data set.
Description: Ability to undergo in vitro ester hydrolysis in 80% human plasma ( pH of 7.4) at 37 degree Celsius expressed as half life of N,N-diethylglycolamide ester hydrolysis

In brackets after ≈: the same amount, converted by molar mass. Where only a bound is given, the exact number is not on record here.

Broadly, the half-life is the time needed for the level to fall by half in the phase considered. High values mean slow decline, low ones rapid decline. By solubility is commonly meant how much of the substance goes into solution per volume. Higher therefore signals much dissolved substance. As a reminder, the logD is lipophilicity at a set pH, counting ionised and neutral species. A lower logD goes with a more hydrophilic compound.

Compound `CCOC(=O)CN(C)C(=O)COC(=O)c1ccccc1` yielded a half-life in series [1] of 0.22 min.
The compound `CN(C)CCN(C)C(=O)COC(=O)c1ccccc1.Cl` showed a half-life in series [1] of 0.12 min. The solubility in “physchem [2]” is over 200000 µg/mL. The compound also came in with a kOH in series [3] of 0.297 M⁻¹ s⁻¹.
In turn, `CN1CCN(C(=O)COC(=O)c2ccccc2)CC1` yielded a half-life in series [1] of 12.7 min. Besides, the kOH in series [3] came out at 0.357 M⁻¹ s⁻¹.
Regarding `O=C(OCC(=O)N(CCO)CCO)c1ccccc1`, in series [1], the half-life turned out to be 0.42 min. The solubility in “physchem [2]” turned out to be 720000 µg/mL (≈ 2690 mM). This compound also had a kOH in series [3] of 0.23 M⁻¹ s⁻¹.
As to `C=CCN(CC=C)C(=O)COC(=O)c1ccccc1` [BENZOIC ACID DIALLYLCARBAMOYLMETHYL ESTER], the T1/2 in the series filed under Homo sapiens [4] is listed as 0.08 min. Further, the solubility in “physchem [2]” worked out at 710 µg/mL (≈ 2.74 mM). This compound also gave a logD in the series “physchem [5]” (octanol/water) of 2.34. The same compound registered a kOH in series [3] of 0.307 M⁻¹ s⁻¹.
In turn, `CCNC(=O)COC(=O)c1ccccc1` [BENZOIC ACID ETHYLCARBAMOYLMETHYL ESTER] registered a half-life in series [1] of 11.5 min. For the same compound, the solubility in the series “physchem [2]” is 1200 µg/mL (≈ 5.79 mM). The compound further showed a logD in the series “physchem [5]” (0.01 M HCl) of 1.28. In series [3], this compound registered a kOH of 1.1 M⁻¹ s⁻¹.
Regarding `CCCNC(=O)COC(=O)c1ccccc1` [BENZOIC ACID PROPYLCARBAMOYLMETHYL ESTER], in series [1], the half-life amounted to 11.2 min. Besides, in the series “physchem [2]”, the solubility worked out at 640 µg/mL (≈ 2.89 mM). Also, the log distribution coefficient (logD) in the series “physchem [5]” (0.01 M HCl) was 1.88. Also, the kOH in series [3] worked out at 0.868 M⁻¹ s⁻¹.
With `CCCN(CCC)C(=O)COC(=O)c1ccccc1` [BENZOIC ACID DIPROPYLCARBAMOYLMETHYL ESTER], the half-life in series [1] was 0.14 min. Further, the kOH in series [3] was 0.237 M⁻¹ s⁻¹.
`CN(C)C(=O)COC(=O)c1ccccc1` [BENZOIC ACID DIMETHYLCARBAMOYLMETHYL ESTER] yielded a half-life in series [1] of 0.15 min. This compound came in with a solubility in “physchem [2]” of 8800 µg/mL (≈ 42.5 mM). In series [3], this compound came in with a kOH of 0.325 M⁻¹ s⁻¹.
`CCN(CCO)C(=O)COC(=O)c1ccccc1`: the half-life in series [1] was found to be 0.16 min. Moreover, the kOH in series [3] is 0.273 M⁻¹ s⁻¹.
For the compound `NC(=O)COC(=O)c1ccccc1` [BENZOIC ACID CARBAMOYLMETHYL ESTER], the half-life in series [6] is 31 min. The amount in solution in the series “physchem [2]” (solubility) came to 4100 µg/mL (≈ 22.9 mM). The compound also gave a log distribution coefficient (logD) in the series “physchem [5]” (0.01 M HCl) of 0.09. In addition, the kOH in series [3] was 1.32 M⁻¹ s⁻¹.
As to `O=C(O)c1ccccc1O` [SALICYLIC ACID], the T1/2 came out at 17.6 h in the series filed under Homo sapiens [7] and 0.08 min in the series filed under Homo sapiens [8].
Compound `CC(C)(C)NC(=O)COC(=O)c1ccccc1` gave a half-life in series [1] of 4.2 min. For the same compound, the solubility in the series “physchem [2]” amounted to 320 µg/mL (≈ 1.36 mM). Moreover, in the series “physchem [5]” (0.01 M HCl), the pH-dependent lipophilicity (logD) stood at 2.26. For the same compound, the kOH in series [3] is 0.855 M⁻¹ s⁻¹.
With `COc1ccc2c(c1)c(CC(=O)O)c(C)n2C(=O)c1ccc(Cl)cc1` [INDOMETHACIN], the values for the T1/2 in the series filed under Homo sapiens [7] and in the series filed under Homo sapiens [8] were 150 h and 25 min, respectively.
Consider `CN(CC(=O)O)C(=O)COC(=O)c1ccccc1`, for which, in series [1], the half-life worked out at 104 min. In the series “physchem [5]” (0.01 M HCl), this compound gave a pH-dependent lipophilicity (logD) of 0.67. Besides, the kOH in series [3] stood at 0.25 M⁻¹ s⁻¹.
In turn, `CN(CCO)C(=O)COC(=O)c1ccccc1` yielded a half-life in series [1] of 0.2 min. In series [3], the kOH amounted to 0.268 M⁻¹ s⁻¹.
The compound `CCN(CC)C(=O)COC(=O)c1ccccc1` [BENZOIC ACID DIETHYLCARBAMOYLMETHYL ESTER] displayed a T1/2 in the series filed under Homo sapiens [4] of 0.04 min. The concentration in solution in “physchem [2]” (solubility) was 2000 µg/mL (≈ 8.5 mM). The kOH in series [3] was 0.273 M⁻¹ s⁻¹.
With `CNC(=O)COC(=O)c1ccccc1` [BENZOIC ACID METHYLCARBAMOYLMETHYL ESTER], the half-life in series [1] was determined as 9.3 min. In “physchem [2]”, this compound yielded a solubility of 3700 µg/mL (≈ 19.2 mM). This compound also showed a logD in the series “physchem [5]” (0.01 M HCl) of 0.99. This compound gave a kOH in series [3] of 1.42 M⁻¹ s⁻¹.
Turning to `CCCCN(CCCC)C(=O)COC(=O)c1ccccc1` [BENZOIC ACID DIBUTYLCARBAMOYLMETHYL ESTER], in series [1], the half-life turned out to be 3.1 min. Besides, in the series “physchem [2]”, the concentration in solution (solubility) came to 80 µg/mL (≈ 0.275 mM). For the same compound, the kOH in series [3] came to 0.188 M⁻¹ s⁻¹.
